Key:
Assay in all cases: flow cytometry, inhibition of purified knob binding to HCE cells
Type in all cases: cell-based
Details in all cases: knob preincubated with ME0462, 1 h, 4 °C; human corneal epithelial cells
[1] = molecular target: T1, HAdV-D37/64 fiber knob (Human adenovirus D37, UniProt Q64823)
T1 construct: gene L5; N-terminal RGS-His tag kept (pQE30-Xa); E. coli M15; Ni-NTA and Q-sepharose

[2] = molecular target: T2, HAdV-D8/53 fiber knob (Human adenovirus D8, UniProt P36845)
T2 construct: gene L5

[3] = molecular target: T3, HAdV-D54 fiber knob (Human adenovirus 54, UniProt B9A5P2)
T3 construct: gene L5

Substance: ME0462
- % inhibition at 80 μM [1]: 70%
- % inhibition at 80 μM [2]: 60%
- % inhibition at 80 μM [3]: 60%

From article PMC6563162 (Viruses, 2019)
